The NIST ThermoML archive (doi:10.1016/j.jct.2004.05.001)
Numbers after ± are expanded uncertainties.

Details: 298.15 K; 101.33 kPa; Liquid

Compound | mass density [kg/m3]
CCCCCCn1cc[n+](C)c1.F[P-](F)(F)(F)(F)F [1-hexyl-3-methylimidazolium hexafluorophosphate] | 1293.5 ± 7
CCCCCCn1cc[n+](C)c1.F[B-](F)(F)F [1-hexyl-3-methylimidazolium tetrafluoroborate] | 1148.1 ± 5
c1ccccc1 [benzene] | 873.2 ± 0.9
CCCCCCCCCCCC [dodecane] | 747 ± 4

Continued, values first:

mass density [kg/m3] | Compound
690.6 ± 1.6 | CCCCCCC [heptane]
771.5 ± 1.4 | CCCCCCCCCCCCCCCC [hexadecane]
